# Values quoted from earlier work, collected in patent US8022179B2 (priority 2005, dated 2011).
# Tested on: wrinkles
# Settings: in vivo; cited from earlier work
sequence,measurement,value
ARGIRELINE,wrinkle reduction,affords wrinkle reduction in certain cases
